Reference: EP1568368A1, “Pharmaceutical combination comprising a CDK inhibitor and a VEGF receptor inhibitor” (Schering Aktiengesellschaft, priority 2004, dated 2005)

Test system: MaTu estrogen-independent human mammary carcinoma cells
Test: MaTu human estrogen-independent mammary carcinoma xenograft model, tumor growth inhibition (tumor area by caliper)
Assay type: in vivo, NMRI nude mice
Design: inhibition of the growth of the MaTu xenograft model: dose or concentration left out as unconfirmed
Settings: monotherapy
Protocol: MaTu (EPO-GmbH, Berlin) estrogen-independent human mammary carcinoma cells, obtained from cell culture, were implanted s.c. in the inguinal region of femal NMRI nude mice. Treatment was started when the tumors were approximately 20 mm^2 in size. The groups were closed when the tumors within a treatment group reached a size of approximately 100 mm^2.
Experimental groups included the following: • 1) Control vehicle • 2) a CDK inhibitor ([…]) • 3) a VEGF-R inhibitor (50 mg/kg, p.o. twice daily, d4-d21) • 4) a CDK inhibitor ([…]) in combination with a VEGF-R inhibitor (50 mg/kg, p.o. twice daily, d4-d21) CDK inhibitor = N-[5-[[[5-(1,1-dimethylethyl)-2-oxazolyl] methyl]thio]-2-thiazolyl]-4-piperidinecarboxamide VEGF-R inhibitor = (4-Chlorophenyl)[4-(4-pyridylmethyl)phthalazin-1-yl]ammonium hydrogen succinate
Tumor area was determined by caliper measurement twice weekly. The example was designed to determine the initial response of a human estrogen-independent mammary carcinoma xenograft model to treatment with a specific CDK inhibitor, to treatment with a specific VEGF-R inhibitor, and to treatment with a combination of a CDK inhibitor together with a VEGF-R inhibitor. The tumor growth inhibiting effect of the compounds was investigated in the MaTu human estrogen-independent mammary carcinoma model, xenografted in NMRI nude mice. […]

Compound	inhibition of tumor growth (50 mg/kg p.o. twice daily, d4-d21, s.c. MaTu xenograft in female NMRI nude mice)	inhibition of the growth of the MaTu xenograft model (i.p. once daily, d4-d21, s.c. xenograft in female NMRI nude mice)
Clc1ccc(Nc2nnc(Cc3ccncc3)c3ccccc23)cc1.O=C(O)CCC(=O)O [VEGF-R inhibitor, (4-Chlorophenyl)[4-(4-pyridylmethyl)phthalazin-1-yl]ammonium hydrogen succinate]	initially an inhibition of tumor growth	–
CC(C)(C)c1cnc(CSc2cnc(NC(=O)C3CCNCC3)s2)o1 [CDK inhibitor, N-[5-[[[5-(1,1-dimethylethyl)-2-oxazolyl]methyl]thio]-2-thiazolyl]-4-piperidinecarboxamide]	–	ineffective
